Molecules are shown by their SMILES.

Seven compounds from ChEMBL document CHEMBL2074547, “Efflux of sphingoid bases by P-glycoprotein in human intestinal Caco-2 cells” (Biosci Biotechnol Biochem, 2004) can be followed below.

This series deals with ATP-dependent translocase ABCB1 (Homo sapiens, UniProt P08183). Kind of series: TP_TRANSPORTER: cell accumulation (digoxin-sensitive) in Caco-2 cells. The format is functional, cell-based.
ATP-dependent translocase ABCB1, sequence (P08183 whole entry): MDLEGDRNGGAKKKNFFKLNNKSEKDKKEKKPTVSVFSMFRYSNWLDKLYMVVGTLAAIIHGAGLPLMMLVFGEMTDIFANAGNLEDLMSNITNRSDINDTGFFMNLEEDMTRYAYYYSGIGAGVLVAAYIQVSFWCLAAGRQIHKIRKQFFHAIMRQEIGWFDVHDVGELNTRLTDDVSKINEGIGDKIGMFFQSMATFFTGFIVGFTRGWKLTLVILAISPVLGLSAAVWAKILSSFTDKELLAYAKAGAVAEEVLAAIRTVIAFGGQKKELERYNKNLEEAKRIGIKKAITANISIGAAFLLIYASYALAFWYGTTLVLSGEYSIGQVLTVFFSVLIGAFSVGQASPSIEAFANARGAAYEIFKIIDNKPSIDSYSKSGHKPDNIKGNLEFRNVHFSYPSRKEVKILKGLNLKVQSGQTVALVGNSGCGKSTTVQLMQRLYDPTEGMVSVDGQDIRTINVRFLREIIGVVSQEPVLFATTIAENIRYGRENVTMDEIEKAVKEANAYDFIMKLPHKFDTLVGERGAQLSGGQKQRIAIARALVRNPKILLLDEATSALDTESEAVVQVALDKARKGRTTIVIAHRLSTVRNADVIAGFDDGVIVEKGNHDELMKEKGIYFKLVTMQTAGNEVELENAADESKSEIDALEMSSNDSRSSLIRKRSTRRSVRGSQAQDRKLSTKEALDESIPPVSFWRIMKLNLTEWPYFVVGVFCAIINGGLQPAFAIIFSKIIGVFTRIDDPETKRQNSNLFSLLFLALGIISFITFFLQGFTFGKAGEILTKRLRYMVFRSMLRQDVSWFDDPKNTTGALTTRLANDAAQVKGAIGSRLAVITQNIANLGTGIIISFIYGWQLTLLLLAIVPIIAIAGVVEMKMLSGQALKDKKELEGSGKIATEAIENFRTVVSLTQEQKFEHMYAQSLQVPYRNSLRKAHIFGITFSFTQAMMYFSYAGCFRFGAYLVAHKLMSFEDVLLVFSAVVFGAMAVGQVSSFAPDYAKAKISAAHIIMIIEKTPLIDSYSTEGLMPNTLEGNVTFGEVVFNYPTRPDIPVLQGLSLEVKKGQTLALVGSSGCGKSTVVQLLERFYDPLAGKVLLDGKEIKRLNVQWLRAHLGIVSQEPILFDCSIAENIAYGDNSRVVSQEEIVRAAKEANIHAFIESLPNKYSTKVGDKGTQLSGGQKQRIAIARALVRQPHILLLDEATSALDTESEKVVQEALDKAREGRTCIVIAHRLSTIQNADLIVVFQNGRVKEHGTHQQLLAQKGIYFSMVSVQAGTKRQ
In the case of `CCCCCCCCCCCCCCC[C@@H](O)[C@@H](N)CO` [DIHYDROSPINGOSINE], the Activity result is “substrate [+]”.
The result for `CCCCCCCCC/C=C/CC/C=C/C(O)C(N)CO` (configuration not stated) reads “substrate [+]”; that for `CCCCCCCCC/C=C\CC/C=C/C(O)C(N)CO` (configuration not stated), “substrate [+]”.
Next, `CCCCCCCCC/C=C\CCCCC(O)C(N)CO` (configuration not stated): “substrate [+]”.
Next, `CCCCCCCCC/C=C/CCCCC(O)C(N)CO` (configuration not stated): “substrate [+]”.
As to `CCCCCCCCC/C(C)=C/CC/C=C/C(O)C(N)CO` (configuration not stated), the Activity result is “substrate [+]”.
With `CCCCCCCCCCCCC/C=C/[C@@H](O)[C@@H](N)CO` [SPHINGOSINE], the Activity result is “is not a substrate [-]”.
